Assay results reported in PubChem BioAssay AID1963863 (Molecular Pharmacology Branch, DTP, NCI, 2024).
“And” between values parts separate entries of the source, which are not always exact repeats. Equal values may be shown once.

System: 931267-113-T-J1-PDC KRAS spheroid with HUVEC/MSC, viability
Experiment: Anticancer human tumor 931267-113-T-J1-PDC patient-derived colon adenocarcinoma cell line growth inhibition [KRAS2]
Conditions: for viability, T/C: stronger effect = lower value
Text: Multicellular complex tumor spheroid response to RAS pathway inhibitors in combination with a targeted agents in patient-derived cell lines with oncogenic KRAS variants from multiple cancer types
A high-throughput screen of multi-cell type tumor spheroids was designed to identify active combinations of targeted small molecules and KRAS pathway inhibitors. Complex spheroids include a stromal component modeled by human endothelial cells (HUVEC) and fibroblasts modeled by human mesenchymal stem cells (MSCs). The concentration ranges selected for each drug and investigational agent were based upon clinically achievable concentrations if the clinical Cmax of the agent was known.
Compounds. The drugs and investigational agents: BI-3406 (NSC825286), BAY-293 (NSC824723), batoprotafib (TNO155; NSC825523), sotorasib (AMG 510; NSC818433), MRTX1257 (NSC819558), elimusertib (BAY 1895344; NSC800525), molibresib (GSK525762; NSC774829), temuterkib (LY3214996; NSC803410), venetoclax (NSC766270), alisertib (NSC759677), olaparib (NSC753686), talazoparib (NSC767125), erdafitinib (NSC781556), ipatasertib (NSC767898), cabozantinib (NSC761068), nintedanib (NSC756659), abemaciclib (NSC768073), docetaxel (NSC628503), trametinib (NSC758246), and sapanisertib (NSC764658) were obtained from the National Cancer Institute (NCI) Developmental Therapeutics Program Chemical Repository. The FDA-approved anticancer drug set is available from the Developmental Therapeutics Program. […] The stock solutions were prepared in dimethyl sulfoxide (DMSO, Sigma-Aldrich, St. Louis, MO, cat. D2650) at 800-fold the tested concentration and stored at -70 degrees C prior to their use. All drugs and investigational agents were tested over a range starting from a high concentration at or near the clinical Cmax and decreasing in half-log increments. If the clinical Cmax for an agent had not been determined, the highest concentration tested was 10 microM.
Cell Culture. All cells were maintained in an incubator at 37 degrees C and 5% CO2 with 95% humidity. The PDC lines were cultured according to standard operating procedures established by the NCI PDMR (https://pdmr.cancer.gov/sops/default.htm). Briefly, all PDCs were thawed and cultured in Matrigel-coated flasks prepared with a working solution of 1X Ham's F-12 nutrient mix, without supplementation (Invitrogen, Waltham, MA, cat. 11765054), 100 U/mL penicillin-streptomycin (Invitrogen, cat. 15140122), and 2.5% Matrigel (Corning Inc., Corning, NY, cat. 354248) for the first three passages. All PDCs were cultured in complete DMEM/F-12 media containing advanced DMEM/F-12 (Invitrogen, cat. 12634028), 4.9% defined fetal bovine serum, heat inactivated (HyClone Laboratories Inc., Logan, UT, cat. SH30070.03HI), 389 ng/mL hydrocortisone (Sigma-Aldrich, cat. H4001), 9.7 ng/mL human EGF recombinant protein (Invitrogen, cat. PHG0313), 23.4 microg/mL adenine (Sigma-Aldrich, cat. A2786), 97.3 U/mL penicillin-streptomycin (Invitrogen, cat. 15140122), 1.9 mM L-glutamine (Invitrogen, cat. 25030081), and 9.7 microM Y-27632 dihydrochloride (Tocris Bioscience, Bristol, United Kingdom, cat. 1254). The PDCs were cultured in complete DMEM/F12 media without 9.7 microM Y-27632 dihydrochloride for at least two passages prior to the screen. The established cell line HOP-62 was cultured in RPMI 1640 medium, HEPES (Invitrogen, cat. 22400105) with 10% defined fetal bovine serum (HyClone Laboratories Inc., cat. SH30070.03) and 2 mM L-glutamine (Invitrogen, cat. 25030081). The pooled donor HUVEC were cultured in endothelial cell growth medium 2 (PromoCell, Heidelberg, Germany, cat. C-22011) and the hMSC were cultured in mesenchymal stem cell growth medium 2 (PromoCell, cat. C-28009). For all experiments, HUVEC and hMSC were used at passages </=5, while the malignant cell lines were used at passages </=15. […]

[1] = compound alone, run of 08/19/2021
[2] = compound alone, run of 08/26/2021
[3] = compound alone, run of 09/02/2021
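Also: compound exposure lasted 7 days before the readout.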
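For viability, T/C in this document: 100% = DMSO vehicle control viability.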

Structure (SMILES) | viability, T/C (compound 0.1 µM) | viability, T/C (compound 0.0316 µM) | IC50 (curve of compound) | viability, T/C (compound 0.316 µM) | viability, T/C (compound 1 µM) | viability, T/C (compound 3.16 µM) | viability, T/C (compound 10 µM) | further results
C=CC(=O)N1CCN(c2nc(=O)n(-c3c(C)ccnc3C(C)C)c3nc(-c4c(O)cccc4F)c(F)cc23)C(C)C1 (configuration not stated) | 92.7% [middle of 17 runs] |  |  |  |  |  |  | IC50 [1]: > 10 µM; IC50 [2]: > 10 µM; IC50 [3]: > 10 µM
C=CC(=O)N1CCN(c2nc(OCC3CCCN3C)nc3c2CCN(c2cccc4cccc(C)c24)C3)CC1CC#N (configuration not stated) |  |  |  |  |  |  |  | IC50 [2]: 1.65 µM [middle of 5 runs]; IC50 [3]: 1.62 µM [middle of 5 runs]
CC(=O)Nc1cccc(-n2c(=O)n(C3CC3)c(=O)c3c(Nc4ccc(I)cc4F)n(C)c(=O)c(C)c32)c1 |  | 14% [middle of 5 runs] | 9.89 nM [middle of 5 runs] |  |  |  |  | viability, T/C (compound 0.0001 µM): 92.7% [middle of 5 runs]; viability, T/C (compound 0.000316 µM): 89.7% [middle of 5 runs]; viability, T/C (compound 0.001 µM): 84.2% [middle of 5 runs]; viability, T/C (compound 0.00316 µM): 64.2% [middle of 5 runs]; viability, T/C (compound 0.01 µM): 55% [middle of 5 runs]
CC(=O)OC12COC1CC(O)C1(C)C(=O)C(O)C3=C(C)C(OC(=O)C(O)C(NC(=O)OC(C)(C)C)c4ccccc4)CC(O)(C(OC(=O)c4ccccc4)C21)C3(C)C (configuration not stated) | 84.7% [middle of 5 runs] | 91.1% [middle of 5 runs] | > 3.16 µM | 86.2% [middle of 5 runs] |  |  |  | 
CC(C)NCC(C(=O)N1CCN(c2ncnc3c2C(C)CC3O)CC1)c1ccc(Cl)cc1 (configuration not stated) |  | 91.2% [middle of 5 runs] |  | 89.6% [middle of 5 runs] | 78.3% [middle of 5 runs] | 65.2% [middle of 5 runs] | 42.5% [middle of 5 runs] | 
CC(C)n1nc(-c2ccc3oc(N)nc3c2)c2c(N)ncnc21 | 23.9% [middle of 5 runs] | 26.9% [middle of 5 runs] |  |  |  |  |  | viability, T/C (compound 0.000316 µM): 90.9% [middle of 5 runs]; viability, T/C (compound 0.001 µM): 92.8% [middle of 5 runs]; viability, T/C (compound 0.00316 µM): 66.5% [middle of 5 runs]
CC1(C)CCC(CN2CCN(c3ccc(C(=O)NS(=O)(=O)c4ccc(NCC5CCOCC5)c([N+](=O)[O-])c4)c(Oc4cnc5[nH]ccc5c4)c3)CC2)=C(c2ccc(Cl)cc2)C1 | 89.5% [middle of 5 runs] | 99.5% [middle of 5 runs] | 2.34 µM [middle of 5 runs] | 91.4% [middle of 5 runs] | 96.9% [middle of 5 runs] | 33.6% [middle of 5 runs] | 10.7% [middle of 5 runs] | 
CC1COCCN1c1cc(-c2ccnn2C)c2ccnc(-c3ccn[nH]3)c2n1 (configuration not stated) | 23.9% [middle of 5 runs] |  | 54.7 nM [middle of 5 runs] | 20.2% [middle of 5 runs] | 21.8% [middle of 5 runs] | 20.6% [middle of 5 runs] |  | 
CC1OCC2(CCN(c3cnc(Sc4ccnc(N)c4Cl)c(N)n3)CC2)C1N (configuration not stated) |  | 97.1% and 83.5% and 83% | > 10 µM |  |  |  |  | IC50 [1]: > 10 µM; IC50 [2]: > 10 µM; IC50 [3]: > 10 µM
CCN1CCN(Cc2ccc(Nc3ncc(F)c(-c4cc(F)c5nc(C)n(C(C)C)c5c4)n3)nc2)CC1 | 70% [middle of 5 runs] | 70.4% [middle of 5 runs] | > 1 µM and 0.595 µM and 0.96 µM | 65% [middle of 5 runs] | 48.4% [middle of 5 runs] |  |  | viability, T/C (compound 0.00316 µM): 85.5% [middle of 5 runs]; viability, T/C (compound 0.01 µM): 88.8% [middle of 5 runs]
CCNC(=O)CC1N=C(c2ccc(Cl)cc2)c2cc(OC)ccc2-n2c(C)nnc21 (configuration not stated) | 83% [middle of 5 runs] | 92.4% [middle of 5 runs] |  | 72.3% [middle of 5 runs] | 60.5% [middle of 5 runs] | 47.1% [middle of 5 runs] | 40.2% [middle of 5 runs] | 
CN(C)C/C=C/C(=O)Nc1cc2c(Nc3ccc(F)c(Cl)c3)ncnc2cc1O[C@H]1CCOC1 | 79% [middle of 5 runs] |  | > 0.1 µM |  |  |  |  | viability, T/C (compound 0.000316 µM): 94.5% [middle of 5 runs]; viability, T/C (compound 0.01 µM): 79.1% [middle of 5 runs]
CNCc1ccccc1-c1csc(C(C)Nc2nc(C)nc3cc(OC)c(OC)cc23)c1 (configuration not stated) |  |  |  |  |  |  | 0.16% [middle of 14 runs] | IC50 [2]: 1.13 µM [middle of 5 runs]; IC50 [3]: 952 nM [middle of 5 runs]
COC(=O)c1ccc2c(C(=Nc3ccc(N(C)C(=O)CN4CCN(C)CC4)cc3)c3ccccc3)c(O)[nH]c2c1 | 78.5% [middle of 5 runs] | 85.8% [middle of 5 runs] | 1.2 µM [middle of 5 runs] | 69.6% [middle of 5 runs] | 59.2% [middle of 5 runs] | 0.6% [middle of 4 runs] | 0.39% [middle of 4 runs] | 
COc1cc(Nc2ncc3c(n2)-c2ccc(Cl)cc2C(c2c(F)cccc2OC)=NC3)ccc1C(=O)O | 79.6% [middle of 5 runs] | 83.6% [middle of 5 runs] | > 10 µM | 79.4% [middle of 5 runs] | 83.3% [middle of 5 runs] | 85.9% [middle of 5 runs] | 72.5% [middle of 5 runs] | 
COc1cc(OC)cc(N(CCNC(C)C)c2ccc3ncc(-c4cnn(C)c4)nc3c2)c1 | 101% [middle of 5 runs] |  | 4.66 µM [middle of 4 runs] | 107% [middle of 5 runs] | 107% [middle of 5 runs] |  | 0.45% [middle of 4 runs] | 
COc1cc2nc(C)nc(NC(C)c3cc(N)cc(C(F)(F)F)c3)c2cc1OC1CCOC1 (configuration not stated) |  |  |  |  |  |  |  | IC50 [2]: 4.74 µM [middle of 4 runs]; IC50 [3]: 4.4 µM [middle of 6 runs]
COc1cc2nccc(Oc3ccc(NC(=O)C4(C(=O)Nc5ccc(F)cc5)CC4)cc3)c2cc1OC |  |  | > 10 µM and 6.16 µM and 10 µM | 96.5% [middle of 5 runs] | 105% [middle of 5 runs] | 60.4% [middle of 5 runs] |  | 
Cn1nccc1Nc1nccc(-c2cc3c(s2)C(C)(C)N(CCN2CCOCC2)C3=O)n1 |  | 91% [middle of 5 runs] | 574 nM [middle of 4 runs] | 68.6% [middle of 5 runs] | 30.6% [middle of 5 runs] | 7.98% [middle of 5 runs] | 4.32% [middle of 5 runs] | 
Cn1ncnc1[C@H]1c2n[nH]c(=O)c3cc(F)cc(c23)N[C@@H]1c1ccc(F)cc1 |  | 94.4% [middle of 5 runs] | > 0.1 µM |  |  |  |  | viability, T/C (compound 0.000316 µM): 102% [middle of 5 runs]; viability, T/C (compound 0.001 µM): 97.8% [middle of 5 runs]; viability, T/C (compound 0.00316 µM): 98.9% [middle of 5 runs]; viability, T/C (compound 0.01 µM): 88.3% [middle of 5 runs]
O=C(c1cc(Cc2n[nH]c(=O)c3ccccc23)ccc1F)N1CCN(C(=O)C2CC2)CC1 | 93% [middle of 5 runs] | 83% [middle of 5 runs] | > 10 µM | 87.8% [middle of 5 runs] |  | 88.3% [middle of 5 runs] | 80.5% [middle of 5 runs] | 
